Drawing on patent publication USRE48711E1, “Apoptosis signal-regulating kinase inhibitors” (Gilead Sciences, Inc., priority 2009, dated 2021), this text covers IC50 for 14 molecules.

This test concerns the target ASK1 (Apoptosis Signal-Regulating Kinase 1) (Homo sapiens (Human), UniProt Q99683). Put plainly: ASK1 (Apoptosis Signal-Regulating Kinase 1) TR-FRET Kinase Assay (Biochemical IC50). The conditions noted are these: TR-FRET, biotin-MBP substrate, 20 min pre-incubation, ATP added as 300 μM solution.

ASK1 (Apoptosis Signal-Regulating Kinase 1), sequence (Q99683 649-946): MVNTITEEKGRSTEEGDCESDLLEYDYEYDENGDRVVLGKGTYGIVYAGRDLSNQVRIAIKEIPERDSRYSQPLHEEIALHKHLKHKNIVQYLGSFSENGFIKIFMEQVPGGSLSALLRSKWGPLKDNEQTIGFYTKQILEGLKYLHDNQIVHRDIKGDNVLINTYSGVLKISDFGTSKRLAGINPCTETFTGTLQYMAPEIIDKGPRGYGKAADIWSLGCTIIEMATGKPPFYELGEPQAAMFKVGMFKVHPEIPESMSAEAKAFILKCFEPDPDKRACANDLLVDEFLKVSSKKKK

`Cc1nc(C2CC2)cn1-c1ccnc(C(=O)Nc2cccc(-c3nncn3C3CC3)c2)c1` [Example 182, 4-(4-cyclopropyl-2-methyl-1H-imidazol-1-yl)-N-(3-(4-cyclopropyl-4H-1,2,4-triazol-3-yl)phenyl)picolinamide] yielded an IC50 of 15 nM.
For the molecule `O=C(Nc1cccc(-c2nncn2C2CC2)c1)c1cc(-c2ccc(C3CC3)nc2)ncn1` [Example 144, N-(3-(4-cyclopropyl-4H-1,2,4-triazol-3-yl)phenyl)-6-(6-cyclopropylpyridin-3-yl)pyrimidine-4-carboxamide], half-maximal inhibition (IC50) required 14 nM.
For `Cn1cnnc1-c1cccc(NC(=O)c2cc(N3CCC(N)C3)ccn2)c1` (centres unmarked) [Example 33, 4-(3-aminopyrrolidin-1-yl)-N-(3-(4-methyl-4H-1,2,4-triazol-3-yl)phenyl)picolinamide], 3480 nM corresponded to half-maximal inhibition (IC50).
As for `CC(O)c1nnc(-c2ccnc(C(=O)Nc3cccc(-c4nncn4C4CC4)c3)c2)o1` (centres unmarked) [Example 252, N-(3-(4-cyclopropyl-4H-1,2,4-triazol-3-yl)phenyl)-4-(5-(1-hydroxyethyl)-1,3,4-oxadiazol-2-yl)picolinamide], the 50% inhibitory concentration (IC50) is 3410 nM.
The value for `CS(=O)(=O)c1cccc(-c2ccnc(C(=O)Nc3cccc(-c4nncn4C4CC4)c3)c2)c1` [Example 77, N-(3-(4-cyclopropyl-4H-1,2,4-triazol-3-yl)phenyl)-4-(3-(methylsulfonyl)phenyl)picolinamide] was 79 nM; that for `CCN1CCN(c2ccnc(C(=O)Nc3cccc(-c4nncn4C4CC4)n3)c2)CC1=O` [Example 178, N-(6-(4-cyclopropyl-4H-1,2,4-triazol-3-yl)pyridin-2-yl)-4-(4-ethyl-3-oxopiperazin-1-yl)picolinamide] was 7 nM.
The value for `O=C(Nc1cccc(-c2nncn2C2CC2)c1)c1cc(-c2cccnc2)c2ccccc2n1` [Example 80, N-(3-(4-cyclopropyl-4H-1,2,4-triazol-3-yl)phenyl)-4-(pyridin-3-yl)quinoline-2-carboxamide] was 36 nM.
The value for `C[C@H](n1cnnc1-c1cccc(NC(=O)c2cc(-c3ccc(C4CC4)nc3)ccn2)n1)C(F)(F)F` [Example 179, (S)-6-cyclopropyl-N-(6-(4-(1,1,1-trifluoropropan-2-yl)-4H-1,2,4-triazol-3-yl)pyridin-2-yl)-3,4′-bipyridine-2′-carboxamide] was 19 nM; that for `O=C(Nc1cccc(-c2nncn2C2CC2)c1)c1cc(-c2ccc(CC(F)(F)F)nc2)ccn1` [Example 171, N-(3-(4-cyclopropyl-4H-1,2,4-triazol-3-yl)phenyl)-6-(2,2,2-trifluoroethyl)-3,4′-bipyridine-2′-carboxamide] was 7 nM.
As for `O=C(Nc1cccc(-c2nncn2C2CC2)c1F)c1cc(-c2cccnc2)ccn1` [Example 157, N-(3-(4-cyclopropyl-4H-1,2,4-triazol-3-yl)-2-fluorophenyl)-3,4′-bipyridine-2′-carboxamide], the IC50 was determined as 38 nM.
To `CCc1ccc(-c2ccnc(C(=O)Nc3ccc(F)c(-c4nncn4C4CC4)c3)c2)cn1` [Example 148, N-(3-(4-cyclopropyl-4H-1,2,4-triazol-3-yl)-4-fluorophenyl)-6-ethyl-3,4′-bipyridine-2′-carboxamide] belongs 56 nM; to `COC[C@H](C)n1cnnc1-c1cccc(NC(=O)c2cc(-c3ccc(C4CC4)nc3)ccn2)n1` [Example 234, (S)-6-cyclopropyl-N-(6-(4-(1-methoxypropan-2-yl)-4H-1,2,4-triazol-3-yl)pyridin-2-yl)-3,4′-bipyridine-2′-carboxamide], 8 nM; to `O=C(Nc1cccc(-c2nncn2C2CC2)c1)c1cc(-c2ccc(OC3CC3)nc2)ccn1` [Example 104, 6-cyclopropoxy-N-(3-(4-cyclopropyl-4H-1,2,4-triazol-3-yl)phenyl)-3,4′-bipyridine-2′-carboxamide], 12 nM.
In turn, `Cc1nccn1-c1ccnc(C(=O)Nc2cccc(-c3nncn3C3CC3)c2)c1` [Example 41, N-(3-(4-cyclopropyl-4H-1,2,4-triazol-3-yl)phenyl)-4-(2-methyl-1H-imidazol-1-yl)picolinamide] gave an IC50 of 48 nM.
